According to patent US20080132484A1, “Method for Identifying Inhibitors Using a Homology Model of Polo-Like Kinase 1” (CYCLACEL LIMITED, priority 2003, published 2008):
“Also recorded” adds a separate entry of the source. Read-outs that look alike come from different tables or passages of the source.

Tests used:
[1] = target: T1, PLK1 (Homo sapiens, UniProt P53350); assay: PLK1 kinase assay (CDC25C phosphorylation, [γ-32P]-ATP); assay type: biochemical; conditions: for inhibition of PLK1 function: at concentrations up to 0.2 mM; for inhibition of PLK1: even at concentrations as high as 1 mM
T1 construct: The PLK1 ORF was cloned into pSSP1 such that the resulting PLK1 translation product would have a 19 amino acid N-terminal tag; made in house; host or cells: Sf9 insect cells (baculovirus)
T1 sequence (P53350 whole entry): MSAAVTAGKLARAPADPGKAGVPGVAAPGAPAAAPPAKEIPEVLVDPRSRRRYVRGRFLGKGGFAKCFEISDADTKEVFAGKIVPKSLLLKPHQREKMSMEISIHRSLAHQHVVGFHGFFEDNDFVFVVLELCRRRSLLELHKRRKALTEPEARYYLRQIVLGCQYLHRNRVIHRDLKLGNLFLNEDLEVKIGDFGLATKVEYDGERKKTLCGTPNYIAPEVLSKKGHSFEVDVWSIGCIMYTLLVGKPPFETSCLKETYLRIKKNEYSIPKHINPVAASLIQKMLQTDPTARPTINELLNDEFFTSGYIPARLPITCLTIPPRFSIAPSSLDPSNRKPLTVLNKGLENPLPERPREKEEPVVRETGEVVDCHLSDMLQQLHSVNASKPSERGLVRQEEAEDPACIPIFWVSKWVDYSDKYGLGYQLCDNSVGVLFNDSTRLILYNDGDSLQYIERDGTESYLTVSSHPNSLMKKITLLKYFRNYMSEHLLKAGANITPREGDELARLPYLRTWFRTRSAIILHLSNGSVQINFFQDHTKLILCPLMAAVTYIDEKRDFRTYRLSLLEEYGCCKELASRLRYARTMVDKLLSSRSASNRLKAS
Method: PLK1 kinase activity was assayed using human CDC25C phosphatase as a substrate. The assays were carried out using 96-well microtitre plates by incubating CDC25C (2 μg/well) with 1 μg/well of purified human recombinant PLK1 and varying concentrations of the candidate compound in a total volume of […] of 20 mM Tris/HCl buffer pH 7.5, supplemented with 25 mM β-glycerophosphate, 5 mM EGTA, 1 mM DTT, and 1 mM NaVO3. Reaction was initiated by the addition of 100 μM ATP and 0.5 μCi of [γ-^32P]-ATP. The reaction mixture was incubated at 30° C. for 1 h, then stopped with 75 mM aq orthophosphoric acid, transferred onto a 96-well P81 filter plate (Whatman), dried, and the extent of CDC25C phosphorylation was assessed by scintillation counting using a Packard TopCount plate reader.
Adenosine, N-ethyhnaleimide, iodoacetamide, and thimerosal were obtained from Sigma Chemical Co. 2′-Thioadenosine was obtained from Calbiochem. […] All compounds were made up as 10 mM stocks in neat dimethylsulfoxide and fresh dilutions to the desired concentrations were made in assay buffer prior to the assay. The candidate compounds were incubated with the enzyme in the kinase assay buffer for the duration of the assay, usually 1 hour at 30° C. […] For each compound duplicate samples, one of which contained dithiothreitol (DTT) at 1 mM final concentration, were assayed.

[2] = target: T2, Human recombinant CKII (Homo sapiens, UniProt P68400); assay: Casein Kinase II (CKII) assay; assay type: biochemical; conditions: at concentrations up to 0.2 mM
T2 construct: purchased New England Biolabs
T2 sequence (P68400 whole entry): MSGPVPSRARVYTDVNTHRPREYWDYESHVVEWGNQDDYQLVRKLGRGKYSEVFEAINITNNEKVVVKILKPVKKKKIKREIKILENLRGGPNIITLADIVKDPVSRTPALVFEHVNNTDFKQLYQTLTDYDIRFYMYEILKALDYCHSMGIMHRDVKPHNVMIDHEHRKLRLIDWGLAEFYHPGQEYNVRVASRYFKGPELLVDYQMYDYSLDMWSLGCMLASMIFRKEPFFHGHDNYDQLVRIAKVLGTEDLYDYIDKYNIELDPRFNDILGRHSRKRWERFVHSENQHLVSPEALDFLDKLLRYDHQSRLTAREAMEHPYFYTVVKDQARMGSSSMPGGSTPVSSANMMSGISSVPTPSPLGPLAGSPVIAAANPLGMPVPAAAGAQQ
T2 sequence (P67870 whole entry partner): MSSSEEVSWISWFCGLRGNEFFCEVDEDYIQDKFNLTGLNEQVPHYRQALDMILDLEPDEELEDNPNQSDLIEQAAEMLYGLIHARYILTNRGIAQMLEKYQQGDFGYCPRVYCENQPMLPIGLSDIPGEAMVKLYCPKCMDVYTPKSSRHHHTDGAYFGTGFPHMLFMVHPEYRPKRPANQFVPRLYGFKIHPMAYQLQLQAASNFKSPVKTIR
Method: Reaction was initiated by the addition of 100 μM ATP and 0.25 μCi of [γ-^32P]-ATP. The reaction mixture was incubated at 30° C. for 15 minutes, then stopped with 75 mM aq orthophosphoric acid, transferred onto a 96-well P81 filter plate (Whatman), dried, and the extent of peptide phosphorylation was assessed by scintillation counting using a Packard TopCount plate reader.

[3] = target: T1, PLK1; assay: Kinetic analysis of PLK1 inhibition (ATP dependence); assay type: biochemical
[4] = target: PKA (Homo sapiens, UniProt P17612); conditions: Table 14, published values; cited from earlier work
[5] = target: CDK2 (Homo sapiens, UniProt P24941); assay: CDK2 inhibition; assay type: biochemical; conditions: Table 12
[6] = in the absence of dithiothreitol, read-out: IC50 (μM) − DTT
[7] = in the presence of dithiothreitol (1 mM), read-out: IC50 (μM) + DTT
[8] = Table 14, read-out: Plk1 (IC50)
[9] = read-out: IC50 with respect to PLK1
[10] = Kinase inhibition, flavonoid compounds, read-out: Plk1 IC50

In the case of Nc1ncnc2c1ncn2[C@@H]1O[C@H](CO)[C@@H](O)[C@H]1S [2′-Thioadenosine], the “inhibition of PLK1 function” value [1] is reported as “did”, the IC50 [1, 6] is reported as 120 µM and the IC50 [1, 7] is reported as over 200 µM. The “inhibition of CKII enzymatic activity” value [2] was “No significant inhibition” and the “mode of PLK1 inhibition with respect to ATP” value (“mode of PLK1 inhibition” below) [3] was “none of these compounds were classical competitive inhibitors”.

For Cc1ncc2ccccc2c1C#N [4-Cyano-3-methylisoquinoline], the IC50 [1, 8] is given as over 500 µM, the “inhibition of PLK1” value [1] is given as “none of these compounds caused any inhibition” and the IC50 [4] is given as 0.03 µM.

CNc1nc(C)c(-c2ccnc(Nc3ccc(O)cc3)n2)s1 [4-[4-(4-methyl-2-methylamino-thiazol-5-yl)-pyrimidin-2-ylamino]-phenol] showed an IC50 [1, 9] of 4 µM.

In the case of Nc1ncnc2c1ncn2[C@@H]1O[C@H](CS)[C@@H](O)[C@H]1O [5′-Thioadenosine, 5′-Deoxy-5′-thioadenosine], the “potency relative to 2′-thioadenosine on PLK1” value [1] is reported as “about 3 fold”, the “inhibition of PLK1 function” value [1] is reported as “did” and the IC50 [1, 6] is reported as 39 µM. For the same molecule, the IC50 [1, 7] was over 200 µM, the “inhibition of CKII enzymatic activity” value [2] was “No significant inhibition” and the “mode of PLK1 inhibition” value ([3]; listed as 5-′thioadenosine) was “none of these compounds were classical competitive inhibitors”. For the same molecule, the “mode of PLK1 inhibition” value ([3]; listed as 5′-thioadenosine) was “dependent on ATP concentration but not competitive with ATP”.

For Nc1ncnc2c1ncn2[C@@H]1O[C@H](CO)[C@@H](O)[C@H]1O [Adenosine], the “inhibition of PLK1 function” value [1] was “did not inhibit”, the IC50 [1, 6] was over 200 µM and the IC50 [1, 7] was over 200 µM. The “inhibition of CKII enzymatic activity” value [2] was “No significant inhibition” and the “mode of PLK1 inhibition” value [3] was “none of these compounds were classical competitive inhibitors”.

In the case of O=C(N[C@@H]1CNCCC[C@H]1OC(=O)c1cc(O)c(C(=O)c2c(O)cccc2C(=O)O)c(O)c1)c1ccc(O)cc1 [Balanol], the “PLK1 inhibition, result in words” value [1] is reported as “no detectable inhibition” and the IC50 [1, 8] is reported as over 200 µM.

For O=c1c(O)c(-c2ccccc2O)oc2cc(O)cc(O)c12 [Datescefin], the IC50 [1, 10] was over 100 µM.

In the case of O=c1c(O)c(-c2ccccc2O)oc2cc(O)cc(O)c12 [Datescetin], the “PLK1 inhibition, result in words” value [1] is reported as “inactive”.

Molecule O=c1c(O)c(-c2ccccc2)oc2cc(O)cc(O)c12 [Galangin] has an IC50 [1, 10] of over 100 µM.

In the case of Cl.NCCNS(=O)(=O)c1cccc2c(Cl)cccc12 [Inhibitor A3], the IC50 [1, 8] is given as over 500 µM, the “inhibition of PLK1” value [1] is given as “none of these compounds caused any inhibition” and the IC50 [4] is given as 11 µM.

In the case of O=S(=O)(NCCNC/C=C/c1ccc(Br)cc1)c1cccc2cnccc12 [Inhibitor H89], the “inhibition of PLK1” value [1] is reported as “none of these compounds caused any inhibition”.

For NC(=O)CI [Iodoacetamide], the “PLK1 inhibition, result in words” value [1] was “to some extent”, the IC50 ([1]; IC50 (μM) + DTT, in the presence of dithiothreitol (1 mM)) was over 200 µM and the IC50 ([1]; IC50 (μM) − DTT, in the absence of dithiothreitol) was 83 µM. For the same molecule, the “inhibition of CKII enzymatic activity” value [2] was “No significant inhibition”.

In the case of CCCCCCOC(=O)[C@]1(O)C[C@@H]2O[C@@]1(C)n1c3ccccc3c3c4c(c5c6ccccc6n2c5c31)C(=O)NC4 [KT5720], the IC50 [1, 8] is listed as over 500 µM, the “inhibition of PLK1” value [1] is listed as “none of these compounds caused any inhibition” and the IC50 [4] is listed as 0.056 µM.

Work on O=c1c(O)c(-c2ccc(O)cc2)oc2cc(O)cc(O)c12 [Kaempferol] yielded an IC50 [1, 10] of over 100 µM.

O=c1cc(-c2ccc(O)c(O)c2)oc2cc(O)cc(O)c12 [Luteolin] gave an IC50 [1, 10] of over 100 µM.

For O=c1c(O)c(-c2cc(O)c(O)c(O)c2)oc2cc(O)cc(O)c12 [Myricetin], the “PLK1 inhibition, result in words” value [1] was “lack of inhibition”, the IC50 [1, 10] was over 100 µM and the IC50 [1, 9] was over 100 µM.

With CCN1C(=O)C=CC1=O [N-ethylmaleimide] the “PLK1 inhibition, result in words” value [1] was “to some extent”, the IC50 [1, 6] was 55 µM and the IC50 [1, 7] was over 200 µM. For the same molecule, the “inhibition of CKII enzymatic activity” value [2] was “No significant inhibition”.

For C[CH2][Hg][S]c1ccccc1C(=O)[O-].[Na+] [Thimerosal], the “PLK1 inhibition, result in words” value [1] was “to some extent”, the IC50 [1, 6] was 22 µM and the IC50 [1, 7] was over 200 µM. The “inhibition of CKII enzymatic activity” value [2] was “No significant inhibition” and the “mode of PLK1 inhibition” value [3] was “none of these compounds were classical competitive inhibitors”.

With COC[C@H]1OC(=O)c2coc3c2[C@@]1(C)C1=C(C3=O)[C@@H]2CCC(=O)[C@@]2(C)C[C@H]1OC(C)=O [Wortmannin] the IC50 [5] was over 10 µM, the “PLK1 inhibition, result in words” value [1] was “very potent inhibitor” and the “mode of PLK1 inhibition” value [3] was “totally independent of ATP; also recorded: completely ATP-independent”.

In the case of O=c1c(-c2ccc(O)cc2)coc2cc(O)ccc12 [daidzein], the “PLK1 inhibition, result in words” value [1] is reported as “inactivity” and the IC50 [1, 10] is reported as over 100 µM.

In the case of O=c1c(O)c(-c2ccc(O)c(O)c2)oc2cc(O)ccc12 [fisetin], the “PLK1 inhibition, result in words” value [1] is reported as “inactivity” and the IC50 [1, 10] is reported as over 100 µM.

In the case of O=c1c(O)c(-c2ccccc2)oc2cc(O)cc(O)c12 [gangolin], the “PLK1 inhibition, result in words” value [1] is reported as “inactivity”.

For COc1ccc(-c2oc3cc(O)cc(O)c3c(=O)c2O)cc1 [kaempferide], the “PLK1 inhibition, result in words” value [1] was “inactivity” and the IC50 [1, 10] was over 100 µM.

With O=c1c(O)c(-c2ccc(O)cc2)oc2cc(O)cc(O)c12 [kaepmpferol] the “PLK1 inhibition, result in words” value [1] was “lack of inhibition”.

With O=c1c(O)c(-c2ccc(O)cc2O)oc2cc(O)cc(O)c12 [morin hydrate] the “PLK1 inhibition, result in words” value [1] was “the most potent in the flavonoid series”, the IC50 [1, 10] was 12.6 ± 1.4 µM and the IC50 [1, 9] was 12 µM.

For O=c1c(O)c(-c2cc(O)c(O)c(O)c2)oc2cc(O)ccc12 [robinetin], the “PLK1 inhibition, result in words” value [1] was “weak inhibition” and the IC50 [1, 10] was 60 µM.

In the case of Purvalanol A, the “PLK1 inhibition, result in words” value [1] is reported as “moderate inhibition”, the IC50 ([1]; Table 12, read-out: Plk1 IC50) is reported as 5 µM and the IC50 [1, 8] is reported as 10 µM. For the same molecule, the IC50 [4] was over 100 µM.
